Source: patent US20230085307A1, “PYRIDAZINONE COMPOUND AND HERBICIDE” (NISSAN CHEMICAL CORPORATION, priority 2019, published 2023)

Tested on: Chinese sprangletop
Experiment: Test Example 3: herbicidal effect by foliage application, Wagner pot (Table 18, symbol D)
Type: in vivo, chinese sprangletop (Leptochloa chinensis)
Conditions: 320 g/ha
Outline: (§1)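 Plants were sown in alluvial soil held under 0.1–0.5 cm standing water and grown 14 days in a greenhouse at 25–30 °C. An emulsifiable formulation, water-diluted to the set dose, was then sprayed onto the foliage, and effects were scored three weeks later using previously defined criteria.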

SMILES | herbicidal effect on D (Chinese sprangletop), rating 0-5
Cc1nn(C)c(=O)c(-c2c(-c3ccccc3OC(F)(F)F)sc3ccccc23)c1O [1-030] | 3 (Herbicidal rate of 40% or more and less than 70%)
CCCC(=O)Oc1c(C)nn(C)c(=O)c1-c1c(-c2ccc(C(C)=NOC)cc2)sc2ccccc12 [1-044] | 4 (Herbicidal rate of 70% or more and less than 90%)

Tested on: southern crabgrass
Experiment: Test Example 4: herbicidal effect by soil treatment (Table 19, symbol F)
Type: in vivo, southern crabgrass (Digitaria ciliaris)
Conditions: amount of applied herbicide 320 g/ha
Outline: (§2)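 Applied as a water-diluted emulsion, the compound was sprayed onto soil covering newly sown seeds. Evaluation came three weeks after application, in a greenhouse held at 25° C. to 30° C.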

SMILES | herbicidal effect rating, F: southern crabgrass
Cc1nn(C)c(=O)c(-c2c(-c3ccccc3OC(F)(F)F)sc3ccccc23)c1O [1-030] | 5 (Herbicidal rate of 90% or more (almost completely withered))
CCCC(=O)Oc1c(C)nn(C)c(=O)c1-c1c(-c2ccc(C(C)=NOC)cc2)sc2ccccc12 [1-044] | 2 (Herbicidal rate of 20% or more and less than 40%)

Tested on: lambsquarters
Experiment: Test Example 5: herbicidal effect by foliage application, plastic box (Table 20, symbol O)
Type: in vivo, lambsquarters (Chenopodium album)
Conditions: foliage application, 320 g/ha, three weeks after application
Outline: (§3)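 Sow seeds spot-wise in sterilized diluvial soil; cover with ~1.5 cm soil. Grow 14 days in greenhouse, 25° C. to 30° C. Spray foliage with emulsion diluted to predetermined amount. Rate effect after 3 weeks.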

SMILES | herbicidal effect grade, O: lambsquarters
Cc1nn(C)c(=O)c(-c2c(-c3ccccc3OC(F)(F)F)sc3ccccc23)c1O [1-030] | 5 (Herbicidal rate of 90% or more (almost completely withered))
CCCC(=O)Oc1c(C)nn(C)c(=O)c1-c1c(-c2ccc(C(C)=NOC)cc2)sc2ccccc12 [1-044] | 4 (Herbicidal rate of 70% or more and less than 90%)

Tested on: persian speedwell
Experiment: Test Example 4: herbicidal effect by soil treatment (Table 19, symbol R)
Type: in vivo, Persian speedwell (Veronica persica)
Conditions: amount of applied herbicide 320 g/ha
Outline: as §2

SMILES | herbicidal effect rating, R: persian speedwell
Cc1nn(C)c(=O)c(-c2c(-c3ccccc3OC(F)(F)F)sc3ccccc23)c1O [1-030] | 5 (Herbicidal rate of 90% or more (almost completely withered))
CCCC(=O)Oc1c(C)nn(C)c(=O)c1-c1c(-c2ccc(C(C)=NOC)cc2)sc2ccccc12 [1-044] | 5 (Herbicidal rate of 90% or more (almost completely withered))

Tested on: lambsquarters
Experiment: Test Example 4: herbicidal effect by soil treatment (Table 19, symbol O)
Type: in vivo, lambsquarters (Chenopodium album)
Conditions: amount of applied herbicide 320 g/ha
Outline: as §2

SMILES | herbicidal effect rating, O: lambsquarters
Cc1nn(C)c(=O)c(-c2c(-c3ccccc3OC(F)(F)F)sc3ccccc23)c1O [1-030] | 5 (Herbicidal rate of 90% or more (almost completely withered))
CCCC(=O)Oc1c(C)nn(C)c(=O)c1-c1c(-c2ccc(C(C)=NOC)cc2)sc2ccccc12 [1-044] | 4 (Herbicidal rate of 70% or more and less than 90%)

Tested on: blackgrass
Experiment: Test Example 5: herbicidal effect by foliage application, plastic box (Table 20, symbol J)
Type: in vivo, blackgrass (Alopecurus myosuroides)
Conditions: foliage application, 320 g/ha, three weeks after application
Outline: as §3

SMILES | herbicidal effect grade, J: blackgrass
Cc1nn(C)c(=O)c(-c2c(-c3ccccc3OC(F)(F)F)sc3ccccc23)c1O [1-030] | 5 (Herbicidal rate of 90% or more (almost completely withered))
CCCC(=O)Oc1c(C)nn(C)c(=O)c1-c1c(-c2ccc(C(C)=NOC)cc2)sc2ccccc12 [1-044] | 3 (Herbicidal rate of 40% or more and less than 70%)

Tested on: late watergrass
Experiment: Test Example 2: herbicidal activity, application during weed generation under submerged conditions (Table 17, symbol A)
Type: in vivo, late watergrass (Echinochloa oryzicola)
Conditions: AAH 320 g/ha; application during weed generation, submerged conditions
Outline: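 Steps: fill Wagner pots with alluvial soil; add water to give 4 cm depth; sow the species mixed; grow under glass at 25–30° C.; at 1–2 leaves apply water-diluted emulsion formulation to the water surface at a fixed herbicide amount; score after 3 weeks.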

SMILES | herbicidal effect rating, A: late watergrass
Cc1nn(C)c(=O)c(-c2c(-c3ccccc3OC(F)(F)F)sc3ccccc23)c1O [1-030] | 1 (Herbicidal rate of 5% or more and less than 20%)
CCCC(=O)Oc1c(C)nn(C)c(=O)c1-c1c(-c2ccc(C(C)=NOC)cc2)sc2ccccc12 [1-044] | 4 (Herbicidal rate of 70% or more and less than 90%)

Tested on: Italian ryegrass
Experiment: Test Example 5: herbicidal effect by foliage application, plastic box (Table 20, symbol K)
Type: in vivo, Italian ryegrass (Lolium multiflorum)
Conditions: foliage application, 320 g/ha, three weeks after application
Outline: as §3

SMILES | herbicidal effect grade, K: Italian ryegrass
Cc1nn(C)c(=O)c(-c2c(-c3ccccc3OC(F)(F)F)sc3ccccc23)c1O [1-030] | 4 (Herbicidal rate of 70% or more and less than 90%)
CCCC(=O)Oc1c(C)nn(C)c(=O)c1-c1c(-c2ccc(C(C)=NOC)cc2)sc2ccccc12 [1-044] | 4 (Herbicidal rate of 70% or more and less than 90%)

Tested on: Italian ryegrass
Experiment: Test Example 4: herbicidal effect by soil treatment (Table 19, symbol K)
Type: in vivo, Italian ryegrass (Lolium multiflorum)
Conditions: amount of applied herbicide 320 g/ha
Outline: as §2

SMILES | herbicidal effect rating, K: Italian ryegrass
Cc1nn(C)c(=O)c(-c2c(-c3ccccc3OC(F)(F)F)sc3ccccc23)c1O [1-030] | 3 (Herbicidal rate of 40% or more and less than 70%)
CCCC(=O)Oc1c(C)nn(C)c(=O)c1-c1c(-c2ccc(C(C)=NOC)cc2)sc2ccccc12 [1-044] | 2 (Herbicidal rate of 20% or more and less than 40%)

Tested on: velvetleaf
Experiment: Test Example 4: herbicidal effect by soil treatment (Table 19, symbol M)
Type: in vivo, velvetleaf (Abutilon theophrasti)
Conditions: amount of applied herbicide 320 g/ha
Outline: as §2

SMILES | herbicidal effect rating, M: velvetleaf
Cc1nn(C)c(=O)c(-c2c(-c3ccccc3OC(F)(F)F)sc3ccccc23)c1O [1-030] | 3 (Herbicidal rate of 40% or more and less than 70%)
CCCC(=O)Oc1c(C)nn(C)c(=O)c1-c1c(-c2ccc(C(C)=NOC)cc2)sc2ccccc12 [1-044] | 0 (Herbicidal rate of 5% or less (almost no effect))

Tested on: redroot pigweed
Experiment: Test Example 5: herbicidal effect by foliage application, plastic box (Table 20, symbol N)
Type: in vivo, redroot pigweed (Amaranthus retroflexus)
Conditions: foliage application, 320 g/ha, three weeks after application
Outline: as §3

SMILES | herbicidal effect grade, N: redroot pigweed
Cc1nn(C)c(=O)c(-c2c(-c3ccccc3OC(F)(F)F)sc3ccccc23)c1O [1-030] | 5 (Herbicidal rate of 90% or more (almost completely withered))
CCCC(=O)Oc1c(C)nn(C)c(=O)c1-c1c(-c2ccc(C(C)=NOC)cc2)sc2ccccc12 [1-044] | 5 (Herbicidal rate of 90% or more (almost completely withered))

Tested on: velvetleaf
Experiment: Test Example 5: herbicidal effect by foliage application, plastic box (Table 20, symbol M)
Type: in vivo, velvetleaf (Abutilon theophrasti)
Conditions: foliage application, 320 g/ha, three weeks after application
Outline: as §3

SMILES | herbicidal effect grade, M: velvetleaf
Cc1nn(C)c(=O)c(-c2c(-c3ccccc3OC(F)(F)F)sc3ccccc23)c1O [1-030] | 5 (Herbicidal rate of 90% or more (almost completely withered))
CCCC(=O)Oc1c(C)nn(C)c(=O)c1-c1c(-c2ccc(C(C)=NOC)cc2)sc2ccccc12 [1-044] | 5 (Herbicidal rate of 90% or more (almost completely withered))

Tested on: barnyard grass
Experiment: Test Example 3: herbicidal effect by foliage application, Wagner pot (Table 18, symbol H)
Type: in vivo, barnyard grass (Echinochloa crus-galli)
Conditions: 320 g/ha
Outline: as §1

SMILES | herbicidal effect on H (barnyard grass), rating 0-5
Cc1nn(C)c(=O)c(-c2c(-c3ccccc3OC(F)(F)F)sc3ccccc23)c1O [1-030] | 5 (Herbicidal rate of 90% or more (almost completely withered))
CCCC(=O)Oc1c(C)nn(C)c(=O)c1-c1c(-c2ccc(C(C)=NOC)cc2)sc2ccccc12 [1-044] | 4 (Herbicidal rate of 70% or more and less than 90%)

Tested on: windgrass
Experiment: Test Example 4: herbicidal effect by soil treatment (Table 19, symbol L)
Type: in vivo, windgrass (Apera spica-venti)
Conditions: amount of applied herbicide 320 g/ha
Outline: as §2

SMILES | herbicidal effect rating, L: windgrass
Cc1nn(C)c(=O)c(-c2c(-c3ccccc3OC(F)(F)F)sc3ccccc23)c1O [1-030] | 5 (Herbicidal rate of 90% or more (almost completely withered))
CCCC(=O)Oc1c(C)nn(C)c(=O)c1-c1c(-c2ccc(C(C)=NOC)cc2)sc2ccccc12 [1-044] | 0 (Herbicidal rate of 5% or less (almost no effect))

Tested on: late watergrass
Experiment: Test Example 1: herbicidal activity, application before weed generation under submerged conditions (Table 16, symbol A)
Type: in vivo, late watergrass (Echinochloa oryzicola)
Conditions: 320 g/ha applied herbicide
Outline: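 Submerged Wagner pots (alluvial soil, 4 cm water) sown with weed seeds and planted with 2.5-leaf rice seedlings; emulsifiable concentrate diluted in water applied to water surface on sowing day. Held in greenhouse at 25-30 °C; injury scored 0-5 by herbicidal rate after three weeks.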

SMILES | Herbicidal effect on A: late watergrass (grade 0-5)
Cc1nn(C)c(=O)c(-c2c(-c3ccccc3OC(F)(F)F)sc3ccccc23)c1O [1-030] | 2 (Herbicidal rate of 20% or more and less than 40%)
CCCC(=O)Oc1c(C)nn(C)c(=O)c1-c1c(-c2ccc(C(C)=NOC)cc2)sc2ccccc12 [1-044] | 5 (Herbicidal rate of 90% or more (almost completely withered))

Tested on: blackgrass
Experiment: Test Example 4: herbicidal effect by soil treatment (Table 19, symbol J)
Type: in vivo, blackgrass (Alopecurus myosuroides)
Conditions: amount of applied herbicide 320 g/ha
Outline: as §2

SMILES | herbicidal effect rating, J: blackgrass
Cc1nn(C)c(=O)c(-c2c(-c3ccccc3OC(F)(F)F)sc3ccccc23)c1O [1-030] | 1 (Herbicidal rate of 5% or more and less than 20%)
CCCC(=O)Oc1c(C)nn(C)c(=O)c1-c1c(-c2ccc(C(C)=NOC)cc2)sc2ccccc12 [1-044] | 0 (Herbicidal rate of 5% or less (almost no effect))
